Results taken from patent US7179943B2, “Bicyclic derivatives that modulate voltage-gated potassium channels and methods of use thereof” (Wyeth, priority 2004, dated 2007).
Structures can show the parent of a compound that is named as a salt.

What was measured:
[1] = target: T1, human Kv1.1/Kvβ1 potassium ion channel complex (Homo sapiens, UniProt Q09470); assay: Xenopus oocytes current assay (inhibition of inactivation, voltage clamp); assay type: cell-based; conditions: Xenopus oocytes expressing hKv1.1/hKvβ1, relative to control bath solution; for activation at 50 µM: read-out: Percent Increase in Steady State Current Of human Kv1.1/Kvβ1 @ a concentration of 50 μM
T1 construct: expressed in transfected cells; host or cells: Xenopus oocytes injected with cRNA
T1 sequence (Q09470 whole entry, one chain of several): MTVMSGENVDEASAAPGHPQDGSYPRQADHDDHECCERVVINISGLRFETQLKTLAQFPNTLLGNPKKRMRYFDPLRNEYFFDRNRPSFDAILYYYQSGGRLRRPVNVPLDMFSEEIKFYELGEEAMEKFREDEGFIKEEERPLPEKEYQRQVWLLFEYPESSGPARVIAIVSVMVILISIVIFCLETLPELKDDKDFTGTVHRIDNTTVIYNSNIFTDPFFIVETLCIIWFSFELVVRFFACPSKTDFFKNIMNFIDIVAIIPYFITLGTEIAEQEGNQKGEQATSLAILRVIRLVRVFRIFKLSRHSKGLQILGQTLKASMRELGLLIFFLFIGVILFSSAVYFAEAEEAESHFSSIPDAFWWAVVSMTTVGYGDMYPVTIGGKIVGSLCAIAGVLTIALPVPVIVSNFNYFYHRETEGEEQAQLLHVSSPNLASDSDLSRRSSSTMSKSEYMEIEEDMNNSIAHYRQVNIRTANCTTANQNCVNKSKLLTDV
Description: The compounds of formula I were examined for their ability to inhibit the inactivation of the human Kv1.1/Kvβ1 potassium ion channel complex in vitro using electrophysiological current recordings on inactivating Kv1.1/Kvβ1 channels expressed in Xenopus oocytes. Xenopus oocytes were harvested from frogs under general anesthesia using aseptic techniques. Oocytes were treated with 2 mg/ml collagenase for 1–1.5 hr, defolliculated, and injected with 40 nL cRNA (a mixture of hky1.1 and hKvβ1) produced using standard molecular biological techniques (Sambrook, et al., 1989, Molecular Cloning: A Laboratory Manual). The concentration of hKv1.1/hKvp1 cRNA varies, but was generally about 50 ng/μL hKv1.1 and […] hKβ1.
Currents were recorded using standard voltage clamp amplifiers at room temperature. Recordings were performed in the bath solution “ND-96” containing 96 mM NaCl, 2 mM KCl, 1 mm CaCl2, 1 mM MgCl2, 10 mM HEPES and […] Gentamycin (pH=7.6). The pipette (electrode) solution generally consisted of […]. Electrodes were made from WPI TW150F-4 borosilicate glass (or equivalent) and typically had resistances of 0.5–1.5 Mohms. The standard current-voltage (IV) pulse protocol consisted of voltage steps from −60 mV to +50 mV, in 10 mV increments for 200 ms, at a frequency of one IV set per 2 minutes. Data were digitized and analyzed by standard software packages.
Solutions of the test compounds consisting of test compounds dissolved in bath solution were applied by bath perfusion using gravity or pump-driven flow. A minimum of 2 mL (10 times the bath volume) over 3 minutes were flowed for each compound concentration tested. Data were averaged across at least 3 cells tested for each concentration.
Test compounds were examined for their ability to inhibit the inactivation of the steady state portion of the IV curve.

SMILES	melting point	activation at 50 µM [1]	Percent Increase in Steady State Current Of human Kv1.1/Kvβ1 @ a concentration of 50 μM [1]
O=C(Nc1ccc(C(F)(F)F)cc1)C1C(=O)C2CCC(C2)C1=O (stereo not shown) (as salt: sodium) [Example 26, N-[4-(trifluoromethyl)phenyl]-2,4-dioxobicyclo[3.2.1]octane-3-carboxamide]	250 to 260 °C	–	–
O=C(Nc1cc(C(F)(F)F)cc(C(F)(F)F)c1)C1C(=O)C2CCC(CC2)C1=O (stereo not shown) (as salt: sodium) [Example 37, N-[3,5-bis(trifluoromethyl)phenyl]-2,4-dioxobicyclo[3.2.2]nonane-3-carboxamide]	286 to 288 °C	–	–
CC1(C)C2CC[C@]1(C)C(=O)C(C(=O)Nc1cc(C(F)(F)F)cc(C(F)(F)F)c1)C2=O (stereo partly drawn) [Example 1, (1S)-N-[3,5-bis(trifluoromethyl)phenyl]-1,8,8-trimethyl-2,4-dioxobicyclo[3.2.1] octane-3-carboxamide]	68 to 72 °C	16%	–
CC1(C)C2CC[C@]1(C)C(=O)C(C(=O)Nc1cc(Cl)cc(Cl)c1)C2=O (stereo partly drawn) [Example 3, (1S)-N-(3,5-dichlorophenyl)-1,8,8-trimethyl-2,4-dioxobicyclo[3.2.1]octane-3-carboxamide]	112 to 114 °C	–	–
CC1(C)C2CC[C@]1(C)C(=O)C(C(=O)Nc1ccc(Cl)c(Cl)c1)C2=O (stereo partly drawn) [Example 4, (1S)-N-(3,4-dichlorophenyl)-1,8,8-trimethyl-2,4-dioxobicyclo[3.2.1]octane-3-carboxamide]	88 to 90 °C	11%	–
CC1(C)C2CC[C@]1(C)C(=O)C(C(=O)Nc1cccc([N+](=O)[O-])c1)C2=O (stereo partly drawn) [Example 5, (1S)-N-(3-nitrophenyl)-1,8,8-trimethyl-2,4-dioxobicyclo[3.2.1]octane-3-carboxamide]	100 to 102 °C	–	–
CC1(C)C2CC[C@]1(C)C(=O)C(C(=O)Nc1ccc([N+](=O)[O-])cc1)C2=O (stereo partly drawn) [Example 6, (1S)-N-(4-nitrophenyl)-1,8,8-trimethyl-2,4-dioxobicyclo[3.2.1]octane-3-carboxamide]	170 to 172 °C	–	–
CC1(C)C2CC[C@]1(C)C(=O)C(C(=O)Nc1ccc(Cl)c(C(F)(F)F)c1)C2=O (stereo partly drawn) [Example 7, (1S)-N-[4-chloro-3-(trifluoromethyl)phenyl]-1,8,8-trimethyl-2,4-dioxobicyclo [3.2.1]octane-3-carboxamide]	118 to 120 °C	–	–
CC1(C)C2CC[C@]1(C)C(=O)C(C(=O)Nc1ccc(C(F)(F)F)cc1)C2=O (stereo partly drawn) [Example 8, (1S)-N-[4-(trifluoromethyl)phenyl]-1,8,8-trimethyl-2,4-dioxobicyclo[3.2.1] octane-3-carboxamide]	81 to 83 °C	53%	–
CN(C)c1ccc(NC(=O)C2C(=O)C3CC[C@](C)(C2=O)C3(C)C)cc1 (stereo partly drawn) [Example 9, (1S)-N-[4-(dimethylamino)phenyl]-1,8,8-trimethyl-2,4-dioxobicyclo[3.2.1] octane-3-carboxamide]	93 to 95 °C	27%	–
CC1(C)C2CC[C@@]1(C)C(=O)C(C(=O)Nc1ccc(Cl)c(Cl)c1)C2=O (stereo partly drawn) [Example 14, (1R)-N-(3,4-dichlorophenyl)-1,8,8-trimethyl-2,4-dioxobicyclo[3.2.1]octane-3-carboxamide]	89 to 91 °C	–	–
CC1(C)C2CC[C@@]1(C)C(=O)C(C(=O)Nc1cccc(C(F)(F)F)c1)C2=O (stereo partly drawn) [Example 17, (1R)-N-[3-(trifluoromethyl)phenyl]-1,8,8-trimethyl-2,4-dioxobicyclo[3.2.1] octane-3-carboxamide]	66 to 68 °C	–	–
O=C(Nc1ccc(Cl)c(Cl)c1)C1C(=O)C2CCC(C2)C1=O (stereo not shown) [Example 24]	–	–	28%
O=C(Nc1cc(C(F)(F)F)cc(C(F)(F)F)c1)C1C(=O)C2CCC(CC2)C1=O (stereo not shown) [Example 37, N-[3,5-bis(trifluoromethyl)phenyl]-2,4-dioxobicyclo[3.2.2]nonane-3-carboxamide]	–	68%	–

Continued, values first:

melting point	activation at 50 µM [1]	Percent Increase in Steady State Current Of human Kv1.1/Kvβ1 @ a concentration of 50 μM [1]	SMILES
> 230 °C	–	–	CC1(C)C2CC1C(=O)C(C(=O)Nc1ccc(C(F)(F)F)cc1)C2=O (stereo not shown) (as salt: sodium) [Example 28, 6,6-Dimethyl-2,4-dioxo-N-[4-(trifluoromethyl)phenyl]bicyclo[3.1.1]heptane-3-carboxamide]
> 230 °C	–	–	CC1(C)C2CC1C(=O)C(C(=O)Nc1cccc(C(F)(F)F)c1)C2=O (stereo not shown) (as salt: sodium) [Example 29, 6,6-Dimethyl-2,4-dioxo-N-[3-(trifluoromethyl)phenyl]bicyclo[3.1.1]heptane-3-carboxamide]
> 230 °C	–	–	CC1(C)C2CC1C(=O)C(C(=O)Nc1ccc(F)c(Cl)c1)C2=O (stereo not shown) (as salt: sodium) [Example 30, 6,6-Dimethyl-2,4-dioxo-N-(3-chloro-4-fluorophenyl)bicyclo[3.1.1]heptane-3-carboxamide]
> 230 °C	–	–	CC1(C)C2CC1C(=O)C(C(=O)Nc1ccc(F)c(C(F)(F)F)c1)C2=O (stereo not shown) (as salt: sodium) [Example 31, 6,6-Dimethyl-2,4-dioxo-N-[4-fluoro-3 (trifluoromethyl)phenyl]bicyclo[3.1.1]heptane-3-carboxamide]
> 230 °C	–	–	CC1(C)C2CC1C(=O)C(C(=O)Nc1ccc(Cl)c(Cl)c1)C2=O (stereo not shown) (as salt: sodium) [Example 32, 6,6-Dimethyl-2,4-dioxo-N-(3,4-dichlorophenyl)bicyclo[3.1.1]heptane-3-carboxamide]
> 230 °C	–	–	CC1(C)C2CC1C(=O)C(C(=O)Nc1cc(Cl)cc(Cl)c1)C2=O (stereo not shown) (as salt: sodium) [Example 33, 6,6-Dimethyl-2,4-dioxo-N-(3,5-dichlorophenyl)bicyclo[3.1.1]heptane-3-carboxamide]
> 230 °C	–	–	CC1(C)C2CC1C(=O)C(C(=O)Nc1ccc(F)cc1)C2=O (stereo not shown) (as salt: sodium) [Example 34, 6,6-Dimethyl-2,4-dioxo-N-(4-fluorophenyl)bicyclo[3.1.1]heptane-3-carboxamide]
> 230 °C	–	–	CC1(C)C2CC1C(=O)C(C(=O)Nc1cccc(Cl)c1)C2=O (stereo not shown) (as salt: sodium) [Example 35, 6,6-Dimethyl-2,4-dioxo-N-(3-chlorophenyl)bicyclo[3.1.1]heptane-3-carboxamide]
> 230 °C	–	–	CC1(C)C2CC1C(=O)C(C(=O)Nc1ccc(Cl)cc1)C2=O (stereo not shown) (as salt: sodium) [Example 36, 6,6-Dimethyl-2,4-dioxo-N-(4-chlorophenyl)bicyclo[3.1.1]heptane-3-carboxamide]
80 to 82 °C	–	–	Cc1ccc(NC(=O)C2C(=O)C3CC[C@](C)(C2=O)C3(C)C)cc1 (stereo partly drawn) [Example 11, (1S)-N-[4-methylphenyl]-1,8,8-trimethyl-2,4-dioxobicyclo[3.2.1]octane-3-carboxamide]
–	190%	–	CC1(C)C2CC1C(=O)C(C(=O)Nc1ccc(C(F)(F)F)cc1)C2=O (stereo not shown) [Example 28, 6,6-Dimethyl-2,4-dioxo-N-[4-(trifluoromethyl)phenyl]bicyclo[3.1.1]heptane-3-carboxamide]
–	67%	–	CC1(C)C2CC1C(=O)C(C(=O)Nc1cccc(C(F)(F)F)c1)C2=O (stereo not shown) [Example 29, 6,6-Dimethyl-2,4-dioxo-N-[3-(trifluoromethyl)phenyl]bicyclo[3.1.1]heptane-3-carboxamide]
–	124%	–	CC1(C)C2CC1C(=O)C(C(=O)Nc1ccc(F)c(Cl)c1)C2=O (stereo not shown) [Example 30, 6,6-Dimethyl-2,4-dioxo-N-(3-chloro-4-fluorophenyl)bicyclo[3.1.1]heptane-3-carboxamide]
–	282%	–	CC1(C)C2CC1C(=O)C(C(=O)Nc1ccc(F)c(C(F)(F)F)c1)C2=O (stereo not shown) [Example 31, 6,6-Dimethyl-2,4-dioxo-N-[4-fluoro-3 (trifluoromethyl)phenyl]bicyclo[3.1.1]heptane-3-carboxamide]
–	311%	–	CC1(C)C2CC1C(=O)C(C(=O)Nc1ccc(Cl)c(Cl)c1)C2=O (stereo not shown) [Example 32, 6,6-Dimethyl-2,4-dioxo-N-(3,4-dichlorophenyl)bicyclo[3.1.1]heptane-3-carboxamide]
–	326%	–	CC1(C)C2CC1C(=O)C(C(=O)Nc1cc(Cl)cc(Cl)c1)C2=O (stereo not shown) [Example 33, 6,6-Dimethyl-2,4-dioxo-N-(3,5-dichlorophenyl)bicyclo[3.1.1]heptane-3-carboxamide]
–	94%	–	CC1(C)C2CC1C(=O)C(C(=O)Nc1ccc(F)cc1)C2=O (stereo not shown) [Example 34, 6,6-Dimethyl-2,4-dioxo-N-(4-fluorophenyl)bicyclo[3.1.1]heptane-3-carboxamide]
–	107%	–	CC1(C)C2CC1C(=O)C(C(=O)Nc1cccc(Cl)c1)C2=O (stereo not shown) [Example 35, 6,6-Dimethyl-2,4-dioxo-N-(3-chlorophenyl)bicyclo[3.1.1]heptane-3-carboxamide]
–	125%	–	CC1(C)C2CC1C(=O)C(C(=O)Nc1ccc(Cl)cc1)C2=O (stereo not shown) [Example 36, 6,6-Dimethyl-2,4-dioxo-N-(4-chlorophenyl)bicyclo[3.1.1]heptane-3-carboxamide]
